The values that follow come from patent US6743575B2, “Compositions and methods for the preservation of living tissues” (Biostore New Zealand Ltd., priority 1996, dated 2004).

The test system of this assay is mouse embryos. The assay is described as follows: Storage of mouse embryos at 4° C., survival assessed by hatching in subsequent culture. The assay is classed as cell-based. The conditions noted are these: for ranking of Class I and Class II solutes for hatching of stored embryos: storage 1-3 days at 4° C., Class I:Class II 1.6:1, 1.75 mM CaSO4. The method, then: The efficacy of the solutions of the present invention in the preservation of mouse embryos was tested as described below. As embryos consist of rapidly dividing cells, they are difficult to arrest, and therefore provide a sensitive test of storage solutions. Embryos also have the advantage that survival in storage can be assessed after 1-5 days by their ability to hatch in subsequent culture.
Viable mouse embryos were stored for periods of 1, 2 or 3 days at 4° C. in either PBS or an aqueous solution of either raffinose, trehalose, sucrose or lactose (Class I solutes), together with a solute selected from the group consisting of trimethyl amine oxide (TMAO), betaine, taurine, sarcosine, glucose, mannose, fructose, ribose, galactose, sorbitol, mannitol, inositol and taurine (Class II solutes), at a ratio of Class I solute to Class II solute of 1.6:1. Each Class I/Class II solution also contained calcium sulfate at a concentration of 1.75 mM. The solutions also contained 0.1-1% bovine serum albumin (BSA) and 25 mg/L of kanamycin sulfate. All reagents were obtained from Sigma Chemical Company (St. Louis, Mo.). Survival of the embryos was assessed by subsequent culture in Dulbecco's Modified Eagles Medium (DMEM, Life Technologies, Grand Island, N.Y.) and was expressed both as the number of live embryos present after storage and the number of embryos which hatched after 48 hours in culture at 37° C.
Mouse embryos were incubated with either sodium butyrate or a Class II solute at either, room temperature, 30° C. or 4° C. prior to storage in Solution 70/30 for up to five days at 4° C. […] Sodium butyrate replaced sodium chloride at the same concentration in PBS. FIGS. 8A, B and C show the percentage of mouse embryos hatching after 1, 2 and 3 days, respectively, in storage following pretreatment with sodium butyrate at concentrations of 5, 10 or 15 mM for either 10, 20 or 30 minutes. FIGS. 8D, E and F show the percentage of mouse embryos alive after 1, 2 and 3 days, respectively, in storage following pretreatment with sodium butyrate at concentrations of 5, 10 or 15 mM for either 10, 20 or 30 minutes. Pretreatment with sodium butyrate allowed up to 80% of embryos to hatch following three days of storage in Solution 70/30. After 5 days of storage in Solution 70/30 following pretreatment with higher concentrations of sodium butyrate, up to 70% of embryos hatched compared to 2% with no pretreatment (see FIG. 9). Embryos stored in PBS without pretreatment lasted no longer than 3 days. […] FIGS. 10A, B, C and D show the survival of mouse embryos after up to four days of storage in Solution 70/30 at 4° C. following pretreatment with 25 mM sodium butyrate for 5, 10 or 15 minutes at room temperature.

Regarding `OC[C@H]1O[C@H](OC[C@H]2O[C@H](O[C@]3(CO)O[C@H](CO)[C@@H](O)[C@@H]3O)[C@H](O)[C@@H](O)[C@@H]2O)[C@H](O)[C@@H](O)[C@H]1O` [Raffinose, raffinose], the “ranking of Class I and Class II solutes for hatching of stored embryos” value is “best Class I solute”. Same read-out and setting: with `C[N+](C)(C)[O-]` [TMAO, trimethyl amine oxide] the entry was “best Class II solute”; with `C[N+](C)(C)CC(=O)O` [betaine], “second best”. Take `CCCC(=O)[O-].[Na+]` [sodium butyrate]: the embryos hatched entry (5 days of storage in Solution 70/30 after pretreatment with higher concentrations of sodium butyrate) is on record as “up to 70%”. The embryos hatching result (three days of storage in Solution 70/30 at 4° C. after pretreatment with sodium butyrate) is “up to 80%”. For `OC[C@H]1O[C@H](O[C@H]2O[C@H](CO)[C@@H](O)[C@H](O)[C@H]2O)[C@H](O)[C@@H](O)[C@@H]1O` [trehalose], the “ranking of Class I and Class II solutes for hatching of stored embryos” value is given as “second best”.
